Reference: patent US20020128193A1, “Retro-inverso prosaposin-derived peptides and use thereof” (priority 1999, published 2002)
In brackets after ≈: the same amount, converted by molar mass. Like-named read-outs stand apart in the source and are kept apart here. Values belong to the molecule of their own block, whether it stands above or below them. Non-standard residues stand in square brackets, D forms with d. Residues, ends and D or L forms follow the SMILES beside them. No end group written: not given here.

Columns and labels:
[1] = test system: NS20Y neuroblastoma cells; conditions: for Bioactive?: neurite outgrowth, 0-8 ng/ml peptide, 24 hours
Method: NS20Y neuroblastoma cells were grown in DMEM containing 10% fetal calf serum (FCS). Cells were removed with trypsin and plated in 30 mm petri dishes onto glass coverslips. […] Cells were cultured for an additional 24 hours, washed with PBS and fixed with Bouin's solution (saturated aqueous picric acid/formalin/acetic acid 15:5:1) for 30 minutes. Fixative was removed with PBS and neurite outgrowth was scored under a phase contrast microscope. […] At least 200 cells were scored in different portions of each dish to determine the percentage of neurite bearing cells and assays were performed in duplicate.
The ED50 value is defined as the half maximal concentration for maximal neurite outgrowth and neural protection in ng/ml.

[2] = test system: neuroblastoma cells and mouse cerebellar explants; conditions: cited from earlier work
[3] = test system: choline acetyltransferase; conditions: neuroblastoma cells in vitro; cited from earlier work
[4] = test system: neuroblastoma cells; conditions: neuroblastoma cells in vitro; cited from earlier work
[5] = Localization and integrity of 125I-peptide D8 in organs after intramuscular or oral administration; assay type: in vivo, Sprague-Dawley rat; conditions: for D8 in tissue: Brain / D8 in tissue: Eyes / D8 in tissue: Heart / D8 in tissue: Kidney 1 / D8 in tissue: Kidney 2 / D8 in tissue: Liver / D8 in tissue: Lung / D8 in tissue: Muscle / D8 in tissue: Sciatic Nerve / D8 in tissue: Spinal Cord / D8 in tissue: Spleen: 200 μg/kg, rat; for crossing of the blood brain barrier: iodinated D8, rat, found in brain after oral administration
Method: Peptide D8 (SEQ ID NO: 4) was iodinated with ^125I according to the manufacturer's instructions (Pierce Chemical Co., Rockford, Ill.), and 200 μg/kg in PBS was injected intramuscularly into, or administered orally to, an adult male Sprague-Dawley rat. […] Results below give ng/g of […] in each tissue after conversion of cpm to nanograms (Table 2). All organs studied contained 90% or greater intact D8. The trophic concentration was estimated to be about 0.2 ng/g over 20 min.

[6] = test system: EAE rats; assay: Reversal of demyelination in experimental allergic encephalomyelitis (EAE) rat model; assay type: in vivo, Lewis rats; conditions: oral D8 100 μg/kg daily
Method: Experimental allergic encephalomyelitis (EAE) is a rat model of human multiple sclerosis (MS). In rats, EAE is induced by injecting foreign protein (guinea pig spinal cord) which results in inflammation and demyelination in white matter 11 days later.
EAE was induced in Lewis rats by injection of an emulsion of guinea pig spinal cord and complete Freund's adjuvant (CFA). At day 12-14, when weakness was evident, treatment with D8 (SEQ ID NO: 4) was begun (100 μg/kg orally in PBS via a stomach tube) and continued for 16 days every day. Six rats were injected with vehicle only. The number and size of demyelinating lesions (plaques) in the spinal cord per mm^2 was scored at […].
After 16 days of oral treatment with D8 (100 μg/kg/day) beginning after the onset of EAE at 14 days, spinal cord lesions were examined and the number of remyelinated axons per lesion were counted.

[7] = test system: myelination; conditions: cited from earlier work
[8] = half maximal concentration for maximal neurite outgrowth and neural protection, NS20Y cells

Molecule: TXLIDNNATEEILY, X=D-alanine (T[dA]LIDNNATEEILY) [Peptide D1]
- ED50 [1, 8]: 1.00 ng/mL
- Bioactive? ([1]; NS20Y cells): YES

Molecule: YSLEKETKNNDLL [Peptide D6]
- ED50 [1, 8]: 0.27 ng/mL
- Bioactive? ([1]; NS20Y cells): YES

Molecule: YLLEETANNDL [Peptide D4]
- ED50 [1, 8]: 0.4 ng/mL
- Bioactive? ([1]; NS20Y cells): YES

Molecule: CEFLVKEVTKLIDNNKTEKEIL [Peptide 22-mer, 22-mer peptide consisting of amino acids 8-29 of human saposin C]
- neurite outgrowth ([2]; in both neuroblastoma cells and mouse cerebellar explants): stimulates neurite outgrowth
- choline acetyltransferase activity [3]: stimulates choline acetyltransferase activity
- cell death [4]: prevents cell death

- D8 in tissue: Brain ([5]; intramuscular, 20 min): 1.00 ng/g
- D8 in tissue: Eyes ([5]; intramuscular, 20 min): 13.9 ng/g
- D8 in tissue: Heart ([5]; intramuscular, 20 min): 9.8 ng/g
- D8 in tissue: Kidney 1 ([5]; intramuscular, 20 min): 395 ng/g
- D8 in tissue: Kidney 2 ([5]; intramuscular, 20 min): 405 ng/g
- D8 in tissue: Liver ([5]; intramuscular, 20 min): 8.0 ng/g
- D8 in tissue: Lung ([5]; intramuscular, 20 min): 43.0 ng/g
- D8 in tissue: Muscle ([5]; intramuscular, 20 min): 19.7 ng/g
- D8 in tissue: Sciatic Nerve ([5]; intramuscular, 20 min): 36.7 ng/g
- D8 in tissue: Spinal Cord ([5]; intramuscular, 20 min): 2.90 ng/g
- D8 in tissue: Spleen ([5]; intramuscular, 20 min): 41.7 ng/g
- crossing of the blood brain barrier [5]: can cross the blood brain barrier
- crossing of the blood brain barrier ([5]; listed as SEQ ID NO: 4): crosses the blood brain barrier
- D8 in tissue: Brain ([5]; oral, 25 min): 5.62 ng/g
- D8 in tissue: Eyes ([5]; oral, 25 min): 4.66 ng/g
- D8 in tissue: Heart ([5]; oral, 25 min): 3.26 ng/g
- D8 in tissue: Kidney 1 ([5]; oral, 25 min): 201 ng/g
- D8 in tissue: Kidney 2 ([5]; oral, 25 min): 217 ng/g
- D8 in tissue: Liver ([5]; oral, 25 min): 5.6 ng/g
- D8 in tissue: Lung ([5]; oral, 25 min): 526 ng/g
- D8 in tissue: Muscle ([5]; oral, 25 min): 3.2 ng/g
- D8 in tissue: Sciatic Nerve ([5]; oral, 25 min): 3.3 ng/g
- D8 in tissue: Spinal Cord ([5]; oral, 25 min): 2.15 ng/g
- D8 in tissue: Spleen ([5]; oral, 25 min): 4.9 ng/g
- weight loss versus control animals [6]: no difference in weight loss
Molecule: CC(C)C[C@@H](N)C(=O)N[C@H](CC(C)C)C(=O)N[C@H](CCC(=O)O)C(=O)N[C@H](CCC(=O)O)C(=O)N[C@H](CC(N)=O)C(=O)N[C@H](CC(N)=O)C(=O)N[C@H](CC(=O)O)C(=O)N[C@H](CC(C)C)C(=O)O [Peptide D8, D-leu-D-leu-D-glu-D-glu-D-asn-D-asn-D-asp-D-leu] (HELM PEPTIDE1{[dL].[dL].[dE].[dE].[dN].[dN].[dD].[dL]}$$$$V2.0; N-terminus and C-terminus assumed)
- ED50 [1]: 0.01 ng/mL (≈ 0.0104 nM)

Molecule: YKEVTKLIDNNKTEKEIL [Peptide 18-mer]
- neurite outgrowth [2]: promotes neurite outgrowth

Molecule: YLLEETANNDLLAT [Peptide D3]
- ED50 [1, 8]: 0.4 ng/mL
- Bioactive? ([1]; NS20Y cells): YES

Molecule: YLIEETANNDLAT [Peptide D2]
- ED50 [1, 8]: 0.8 ng/mL
- Bioactive? ([1]; NS20Y cells): YES

Molecule: LLEETANNDL [Peptide D5]
- ED50 [1, 8]: 0.2 ng/mL
- Bioactive? ([1]; NS20Y cells): YES

B1: saposin C: glycoprotein generated by proteolytic processing of prosaposin (protein, UniProt P07602 311-390, looked up)
Saposin-C: SDVYCEVCEFLVKEVTKLIDNNKTEKEILDAFDKMCSKLPKSLSEECQEVVDTYGSSILSILLEEVSPELVCSMLHLCSG
modifications: Saposin-C
notes: glycoprotein generated by proteolytic processing of prosaposin
- neurite outgrowth [2]: stimulate neurite outgrowth
- myelination [7]: promote increased myelination
